Measurements taken from article PMC3517777, “Phase I study of TP300 in patients with advanced solid tumors with pharmacokinetic, pharmacogenetic and pharmacodynamic analyses” (BMC Cancer, 2012).

Test: Phase I dose escalation of TP300: toxicity (CTCAE v3.0), DLT, MTD
Type: in vivo, human
Method: TP300 was given as a 1-hour intravenous (i.v.) infusion, by peripheral venous catheter, every 3 weeks.
The starting dose of 1 mg/m^2 was derived from single and repeat dose toxicity studies and represented one sixth of 0.3 mg/kg (6 mg/m^2), a dose tolerated without evidence of serious, irreversible or life-threatening toxicity in the most sensitive of the two species tested. Doses were doubled in subsequent cohorts until grade ≥2 toxicity was observed, whereupon a modified Fibonacci dose escalation scheme was used. In each cohort the first patient was required to complete 1 cycle before subsequent patients were entered. Intra-patient dose-escalation was not allowed.
The MTD was the dose level below that at which ≥ 2 out of 3–6 patients experienced a DLT. Radiologic assessment of disease was performed every 2 cycles. Patients could remain on treatment if there was evidence of clinical benefit but were withdrawn from the study upon clinical or radiologic progression, unacceptable toxicity or withdrawal of consent.
Toxicity was assessed weekly and graded using the National Cancer Institute Common Toxicity Criteria (CTCAE) version 3.0. DLT was defined as the occurrence of any of the following adverse events: grade 4 thrombocytopenia; febrile neutropenia or grade 4 neutropenia > 5 days duration; grade 4 diarrhoea not reduced to grade 1 within 2 days of appropriate therapy; other gastro-intestinal toxicities (e.g. vomiting, nausea, stomatitis) ≥ grade 3 and not reduced to grade 1 within 2 days of appropriate therapy; any other non-haematologic toxicities ≥ grade 3 (excluding alopecia).

[1] = suspected treatment related adverse events within cycle 1, N = 32, all doses 1-12 mg/m^2

CCCCCN1C=Nc2cccc3nc4c(c1c23)Cn1c-4cc2c(c1=O)COC(=O)[C@@]2(CC)OC(=O)CN(C)C(=O)CN [TP300, glycine,glycyl-N-methyl-,(9S)-9-ethyl-9,10,13,15-tetrahydro-10,13-dioxo-1-pentyl-1H,12H-pyrano[3'',4'':6′,7′]indolizino[2′,1′:5,6]pyrido[4,3,2-de]quinazolin-9-yl ester, hydro-chloride]
DLTs (patients with DLT / patients dosed) (10 mg/m^2): 3/12 | DLTs (patients with DLT / patients dosed) (12 mg/m^2): 2/4 | MTD (maximum tolerated dose) (1-hour i.v. infusion 3-weekly, patients with advanced solid tumors): 10 mg/m^2 | worst grade of diarrhoea (8 patients developed diarrhoea, all doses): ≤ 2 grade | time to diarrhoea after TP300 treatment, average (8 patients with diarrhoea): 9.5 days | time to diarrhoea after TP300 treatment, range (8 patients with diarrhoea): 1 to 27 days | cholinergic effects (32 patients, all doses): no patient experienced cholinergic effects | patients discontinued due to toxicity (32 patients, all doses): 4 patients | treatment-related deaths (32 patients, all doses): no treatment-related deaths | recommended Phase II starting dose (cycle 1): 8 mg/m^2 | recommended Phase II dose on subsequent cycles (escalation if initial treatment is well tolerated): 10 mg/m^2 | Anaemia, All grade [1]: 6 ( 19) No. (%) | Anaemia, Grade 3 [1]: 2 ( 6) No. (%) | Back pain, All grade [1]: 1 ( 3) No. (%) | Back pain, Grade 3 [1]: 1 ( 3) No. (%) | Chills, All grade [1]: 2 ( 6) No. (%) | Chills, Grade 3 [1]: 1 ( 3) No. (%) | Diarrhea, All grade [1]: 8 ( 25) No. (%) | Diarrhea, Grade 3 [1]: 0 (0) No. (%) | Dyspnoea, All grade [1]: 1 ( 3) No. (%) | Dyspnoea, Grade 3 [1]: 1 ( 3) No. (%) | Febrile neutropenia, All grade [1]: 2 ( 6) No. (%) | Febrile neutropenia, Grade 3 [1]: 2 ( 6) No. (%) | Hepatorenal failure, All grade [1]: 1 ( 3) No. (%) | Hepatorenal failure, Grade 3 [1]: 1 ( 3) No. (%) | Lethargy, All grade [1]: 12 ( 38) No. (%) | Lethargy, Grade 3 [1]: 4 ( 13) No. (%) | Leukopenia, All grade [1]: 3 ( 9) No. (%) | Leukopenia, Grade 3 [1]: 3 ( 9) No. (%) | Nausea, All grade [1]: 13 ( 41) No. (%) | Nausea, Grade 3 [1]: 0 (0) No. (%) | Neutropenia, All grade [1]: 6 ( 19) No. (%) | Neutropenia, Grade 3 [1]: 6 ( 19) No. (%) | Neutropenic sepsis, All grade [1]: 1 ( 3) No. (%) | Neutropenic sepsis, Grade 3 [1]: 1 ( 3) No. (%) | Syncope, All grade [1]: 1 ( 3) No. (%) | Syncope, Grade 3 [1]: 1 ( 3) No. (%) | Thrombocytopenia, All grade [1]: 3 ( 9) No. (%) | Thrombocytopenia, Grade 3 [1]: 3 ( 9) No. (%) | Vomitting, All grade [1]: 9 ( 28) No. (%) | Vomitting, Grade 3 [1]: 0 (0) No. (%)
